Results reported in patent US9468624B2, “Small molecule antagonists of bacterial quorum-sensing receptors” (priority 2008, dated 2016).
Where two headings read alike, the source gives them in different places.

Legend:
CviR [1] = molecular target: T1, CviR (Chromobacterium violaceum, UniProt D3W065); test: cell-based; format: cell-based; set-up: made in house; host or cells: E. coli BL21(DE3) pLysS, plasmid pET23b
Method: The vioA-gfp promoter fusion was constructed by amplifying the vioA promoter and cloning this region upstream of gfp in pEVS141 at the SphI and SalI sites. Cells containing the vioA-gfp construct were electroporated with the pET23 carrying cviR and selected on LB medium supplemented with 75 μg/mL ampicillin and 50 μg/mL kanamycin. The E. coli strain containing cviR and the vio:gfp reporter is named ELS1257.
E. coli strains were grown overnight in LB medium with antibiotics at 37° C. and sub-cultured into fresh medium at a 1:100 dilution. Various AHL and antagonists were added at constant concentrations or titrated as stated. The gfp was measured on an Envision plate reader after 5 hours of growth at 37° C. C. violaceum strains were grown aerobically in 1 mL Nutrient Broth plus 1 mM tryptophan at 30° C. […] Cells were collected via centrifugation at 13000 rpm for 15 minutes. Pellets were resuspended in 1 mL of methanol and incubated at 42° C. for 1 hour. Samples were again collected via centrifugation at 13000 rpm for 5 minutes and analyzed for violacein by measuring optical density at 568 nm on a Beckman Coulter DU-800 spectrophotometer. For the dose-response analyses, all assays were performed in triplicate.
However, binding of the longer acyl-tail length AHL molecules disrupts the transcriptional activation ability of CviR.
To determine if 4606-4237 inhibits violacein production specifically by interfering with CviR, 4606-4237 was tested for antagonism of CviR in the recombinant E. coli vioA-gfp assay. For these experiments, C6-HSL was held constant at 500 nM, while 4606-4237 was titrated from 1.3 nM to 100 μM (FIG. 3D). […] Importantly, no C. violaceum components other than CviR are present in the recombinant E. coli assay strain. Thus, any inhibition occurring would be due to a specific interaction between the antagonist molecule 4606-4237 and CviR rather than an interaction of 4606-4237 with some unknown component required for violacein production in C. violaceum.

CviR [2] = molecular target: T1, CviR; settings: CviR expressed in E. coli, whole cell vs soluble extract, ligand 50 μM
Method: CviR Overexpression and Purification. CviR was overexpressed in BL21(DE3) pLysS by growing an overnight culture in LB supplemented with 100 μg/mL ampicillin and 10 μg/mL chloramphenicol. The culture was diluted 1:50 into fresh LB supplemented with 100 μg/mL ampicillin and 10 μg/mL chloramphenicol and grown shaking at 37° C. to an OD600 of 0.4. Various AHL or antagonist molecules were added to at 50 μM and incubated an additional 30 minutes at 30° C., after which expression was induced by the addition of 100 μM IPTG (isopropyl-β-D-thiogalactopyranoside) for 4 hours at 30° C. Cells were harvested by centrifugation and lysed in 20 mM imidazole pH 8.0, 100 mM NaCl, 0.5 mM EDTA and 5% glycerol via a Micro-fluidizer processor (MicroFluidics). Protein was purified via ion-exchange using a Hitrap Heparin HP column (GE Healthcare). Protein was eluted with a 100 mM to 1 M NaCl gradient. Fractions containing CviR were pooled and diluted in lysis buffer devoid of NaCl, and then further purified by cation exchange chromatography using a Hitrap SP HP column (GE Healthcare). CviR was eluted with a 100 mM to 1 M NaCl gradient.
The solubility characteristics of CviR were analyzed in the presence of the various molecules under study. […] As controls, the protein was also expressed in the absence of any AHL or antagonist. In each case, whole cell and soluble fractions of cell lysates were analyzed by SDS-PAGE to assess whether the CviR protein in question had been stabilized.

LuxN = molecular target: T2, LuxN (Vibrio campbellii, UniProt A7MRY4); test: V. harveyi bioluminescence dose-response; format: cell-based, Vibrio harveyi; settings: IC50 for inhibition of bioluminescence
T2 construct: Light production from wild type V. harveyi (BB120), a luxPQ mutant (BB960), and a luxPQ, luxS double mutant (JMH624) was measured; endogenous in cells; host or cells: V. harveyi BB120, BB960 (luxQ::Tn5), JMH624 (ΔluxM, luxQ::Tn5)
T2 sequence (A7MRY4 whole entry): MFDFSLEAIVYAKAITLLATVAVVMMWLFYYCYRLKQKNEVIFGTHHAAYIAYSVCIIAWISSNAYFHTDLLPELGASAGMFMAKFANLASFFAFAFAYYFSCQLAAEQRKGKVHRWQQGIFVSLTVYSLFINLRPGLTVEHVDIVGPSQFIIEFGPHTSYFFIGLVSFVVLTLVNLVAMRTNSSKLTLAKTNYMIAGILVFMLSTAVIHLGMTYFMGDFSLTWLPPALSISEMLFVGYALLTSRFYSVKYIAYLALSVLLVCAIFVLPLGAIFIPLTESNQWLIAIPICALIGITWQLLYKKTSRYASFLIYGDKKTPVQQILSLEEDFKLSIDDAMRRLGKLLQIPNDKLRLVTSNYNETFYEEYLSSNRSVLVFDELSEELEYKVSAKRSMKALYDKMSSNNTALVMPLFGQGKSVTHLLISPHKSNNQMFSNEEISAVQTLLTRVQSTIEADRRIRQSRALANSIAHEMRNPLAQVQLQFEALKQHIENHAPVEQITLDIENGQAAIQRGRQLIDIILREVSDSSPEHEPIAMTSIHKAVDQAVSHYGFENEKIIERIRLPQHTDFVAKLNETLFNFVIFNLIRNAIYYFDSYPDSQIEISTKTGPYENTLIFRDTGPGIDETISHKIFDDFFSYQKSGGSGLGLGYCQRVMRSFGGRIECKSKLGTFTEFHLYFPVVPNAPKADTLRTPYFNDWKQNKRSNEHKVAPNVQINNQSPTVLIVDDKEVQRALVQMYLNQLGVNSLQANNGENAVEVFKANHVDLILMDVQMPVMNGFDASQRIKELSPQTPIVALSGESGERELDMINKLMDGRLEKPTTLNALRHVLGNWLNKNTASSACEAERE
Method: Wild type C. violaceum strain ATCC31532 was purchased from the ATCC. The cviI mutant strain, CV026 was kindly supplied by Clay Fuqua and Paul Williams. C. violaceum strains were grown aerobically at 30° C. in either Luria-Bertani broth or Nutrient Broth supplemented with 1 mM trypotophan. V. harveyi strains were grown aerobically at 30° C. in autoinducer bioassay (AB) broth. AI-1 dose-response curves were generated in V. harveyi strains BB120, BB960 and JMH624 as described. E. coli was grown at 37° C. in Luria Bertani broth. The plasmid pET23b (Novagen) was used for expressing cviR in E. coli strain BL21-Gold (DE3) or BL21(DE3) pLysS (Stratagene) and maintained by inclusion of Ampicillin at 100 μg/ml. Plasmid pEVS141 was used for the vioA-gfp promoter fusion and maintained with 50 μg/ml of Kanamycin. C. elegans wild type strain, N2 was used for all of the nematode infection studies. Worms were propagated on Nematode Growth Media (NGM) medium with an E. coli OP50 lawn as the food source and allowed to multiply at 20° C.
To determine the properties of CTL and CL in relation to the LuxN receptor, the in vivo activity was examined of 4606-4237, CTL, and CL for V. harveyi LuxN using dose response analyses of the endogenous quorum-sensing-activated target, bioluminescence. Three different V harveyi strains were examined (1) The wild type V. harveyi strain BB120 which has multiple quorum-sensing circuits, and thus responds to multiple autoinducers, only one of which is the AHL acting through LuxN. (2) V. harveyi BB960 which lacks the receptor for the second autoinducer making the AHL-LuxN circuit the dominant input into bioluminescence expression. (3) V. harveyi JMH624 which, in addition to lacking the receptor for the second autoinducer lacks the AHL synthase LuxM. Thus, V. harveyi JMH624 induces bioluminescence exclusively in response to the AHL, 3OH-C4-HSL signal but only when it is supplied exogenously. Exogenous addition of 20 nM 3OH-C4-HSL is sufficient to induce maximal bioluminescence in all of these strains.

[3] = V. harveyi JMH624 + 20 nM 3OH-C4-HSL

T1 sequence (D3W065 1-265): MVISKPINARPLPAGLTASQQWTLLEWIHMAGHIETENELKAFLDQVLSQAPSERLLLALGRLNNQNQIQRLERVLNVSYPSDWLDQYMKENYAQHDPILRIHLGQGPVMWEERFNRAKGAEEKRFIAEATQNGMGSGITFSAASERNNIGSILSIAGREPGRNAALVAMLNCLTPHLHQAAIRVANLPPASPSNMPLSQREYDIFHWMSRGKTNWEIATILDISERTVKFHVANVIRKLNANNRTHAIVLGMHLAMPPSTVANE

Question: Which IC50 (CviR [1]; constant 500 nM C6-HSL, read-out: IC50 for inhibition of vioA-gfp expression) does the source give for `O=C(CCCOc1ccc(Cl)cc1)NC1CCOC1=O` (stereo not shown) [CL, chlorolactone] here?
Answer: Its IC50 is 0.377 µM.

Question: What about the “CviR folding and solubility in presence of ligand” value (CviR [2]) of the same compound?
Answer: Its value is “promoted CviR31532 folding and solubility”.

Question: And the IC50 (LuxN; V. harveyi BB960)?
Answer: Its IC50 is 14 µM.

Question: What about the IC50 (LuxN; [3]) of the same compound?
Answer: The IC50 was 0.873 µM.

Question: What about the IC50 (LuxN; wild type V. harveyi BB120) of the same compound?
Answer: The IC50 was 40 µM.

Question: Which IC50 (CviR [1]) does the source give for `O=C(CCCOc1ccc(Cl)cc1)NC1CCSC1=O` (stereo not shown) [CTL, Chloro-thiolactone] here?
Answer: Its IC50 is 1.1 µM.

Question: What about the “CviR folding and solubility in presence of ligand” value (CviR [2]) of the same compound?
Answer: The value was “promoted CviR31532 folding and solubility”.

Question: What about the IC50 (LuxN; V. harveyi BB960) of the same compound?
Answer: The IC50 was 28 µM.

Question: What about the IC50 (LuxN; [3]) of the same compound?
Answer: Its IC50 is 6 µM.

Question: What about the IC50 (LuxN; wild type V. harveyi BB120) of the same compound?
Answer: Its IC50 is 150 µM.
